Data as given in patent US8541415B2 (University of Pittsburgh—of the Commonwealth System of …, priority 2008, dated 2013).

Assays:
HIV-1 strain NL4-3 = experiment: microbe, parasite or virus in culture; type: cell-based; conditions: for activity at 5 µM: Human immunodeficiency virus 1, NL43, U-87 MG, 96 h, read-out: HIV p24% Control @ day 4; for Anti-HIV activity (words, structure-activity comment on Table 1): 5 μM, p24 day 4
Protocol: (§1) Lead compounds from the yeast screen were evaluated for activity in a Nef-dependent HIV replication assay. For these experiments, U87MG astroglioma cells engineered to express the HIV-1 co-receptors CD4 and CXCR4 were employed. Replication of HIV-1 NL4-3 is dependent upon an intact viral nef gene in these cells, making this system suitable to evaluate leads from the Nef-directed screen. U87MG cells were infected with HIV-1 in the presence of the top five compounds identified in the yeast screen, and HIV replication was monitored as p24 release into the culture supernatant 4 days later, as known in the art. As known in the art, “p24” refers to a constituent protein of the capsid of HIV-1.
(§2) The data of Table 1 are presented as percent p24 release relative to control in the absence of compound. […] Data are expressed as percent viable cells relative to untreated control culture.
It is understood that “strongest” and like terms in the context of inhibitors identified in a library screen refer to compounds that inhibit at the lowest concentrations. For these experiments, the U87MG astroglioma cell line was used as a model system. […] U87MG cells were infected with HIV-1 strain NL4-3 as well as an isogenic variant that fails to express Nef (ΔNef), over a wide range of viral titers and in the presence of each compound at 5 μM. Viral replication was assessed as HIV p24 antigen release into the culture supernatant 4 and/or 5 days later. Methods for the assay of p24 in culture supernatant are well known in the art and include, for example without limitation, immunochemical methods.

U87MG cells = conditions: human; for Cytotoxicity, Viable cell % control: 96 h, 30 μM
Protocol: as §1, §2

Compound | activity at 5 µM (HIV-1 strain NL4-3) [%] | Cytotoxicity, Viable cell % control (U87MG cells) [% control] | Anti-HIV activity (words, structure-activity comment on Table 1) (HIV-1 strain NL4-3; U87MG cells) | Suppression of HIV replication (HIV-1 strain NL4-3; U87MG cells, p24 release 4 days later, leads from yeast screen) | Concentration up to which not cytotoxic (U87MG cells) [µM]
O=S(=O)(Nc1nc2ccccc2nc1Nc1ccc2ccccc2c1)c1ccccc1 [Compound Q1] | 4 | 98 |  |  | 
Nc1ncnc2oc(-c3ccco3)c(-c3ccco3)c12 [IIIc] | 20 |  |  |  | 
OCCNc1ncnc2oc(-c3ccccc3)c(-c3ccccc3)c12 [IIIL] | 93 | 94 |  |  | 
O=C(O)CNc1ncnc2oc(-c3ccccc3)c(-c3ccccc3)c12 [IIIg] | 58 | 100 |  |  | 
COc1ccc(Nc2nc3ccccc3nc2NS(=O)(=O)c2ccc(Cl)cc2)cc1OC [Compound Q3] | 13 | 100 | one of the most active compounds |  | 
O=S(=O)(Nc1nc2ccccc2nc1Nc1cccc2ccccc12)c1ccccc1 [Compound Q4] | 26 | 100 |  |  | 
c1ccc(-c2oc3ncnc(NCc4ccco4)c3c2-c2ccccc2)cc1 [IIIb] | 8 | 109 |  |  | 
O=S(=O)(Nc1nc2ccccc2nc1Nc1ccc(O)cc1)c1ccccc1 [Compound Q11] | 68 | 88 |  |  | 
COc1ccc2nc(NS(=O)(=O)c3ccccc3)c(Nc3cc(OC)c(OC)c(OC)c3)nc2c1 [Compound Q10] | 62 | 95 |  |  | 
COc1ccc(Nc2nc3ccccc3nc2NS(=O)(=O)c2ccc(Cl)cc2)c(OC)c1 [Compound Q5] | 26 | 96 |  |  | 
CCOc1ccccc1Nc1nc2ccccc2nc1NS(=O)(=O)c1ccc(C)cc1 [Compound Q9] | 60 | 100 |  |  | 
c1ccc(-c2oc3ncnc(NCCCN4CCOCC4)c3c2-c2ccccc2)cc1 [IIIf] | 47 | 99 |  |  | 
COc1ccccc1Nc1nc2ccccc2nc1NS(=O)(=O)c1ccccc1 [Compound Q14] | 87 | 93 |  |  | 
COc1ccc(Nc2nc3ccccc3nc2NS(=O)(=O)c2ccc(C)cc2)c(OC)c1 [Compound Q8] | 55 | 90 |  |  | 
COc1ccc(Nc2nc3ccccc3nc2NS(=O)(=O)c2ccc(C)cc2)cc1OC [Compound Q13] | 82 | 91 |  |  | 
O=S(=O)(Nc1nc2ccccc2nc1Nc1ccccc1)c1ccccc1 [Compound Q7] | 42 | 97 |  |  | 
CCOc1ccc(S(=O)(=O)Nc2nc3ccccc3nc2Nc2ccc(OC)cc2)cc1 [Compound Q18] | 112 | 99 |  |  | 
Cc1ccc(S(=O)(=O)Nc2nc3ccccc3nc2Nc2ccc3c(c2)OCCO3)cc1 [Compound Q15] | 88 | 96 |  |  | 
O=S(=O)(Nc1nc2ccccc2nc1Nc1cccc(O)c1)c1ccccc1 [Compound Q19] | 114 | 92 |  |  | 
O=C(Nc1ncnc2oc(-c3ccccc3)c(-c3ccccc3)c12)c1ccco1 [IIIh] | 59 | 89 |  |  | 
COc1ccc(OC)c(Nc2nc3ccccc3nc2NS(=O)(=O)c2ccc(Cl)cc2)c1 [Compound Q2] | 10 | 100 |  |  | 
Cc1nc2sc(-c3nc4ccccc4[nH]3)c(N)c2c(C)c1Cl [IIa] |  |  |  | significantly suppressed HIV replication | > 50
CCOc1ccc(S(=O)(=O)Nc2nc3ccccc3nc2Nc2ccccc2)cc1 [Compound Q16] | 91 | 100 |  |  | 
COc1ccc(Nc2nc3ccccc3nc2NS(=O)(=O)c2ccccc2)cc1OC [Compound Q17] | 100 | 97 | one of the least active |  | 
